Here are results for 36 molecules from US20250270180A1, “MEK INHIBITORS AND THERAPEUTIC USES THEREOF” (Immuneering Corporation, priority 2020, published 2025).

The subject of data set [1] is A549 CRAF BP (MEK phosphorylation). The data set is described as follows: A549-CRAF BP 100 nM, 2 h (pMEK). Type of data set: cell-based. The following applies: Homo sapiens, A549, 2 h, phospho:total ratio normalized to DMSO control. On the procedure:
(§1) A549 or […] cells were treated in duplicate for two hours with compounds at varying concentrations. After two hours, the cells were lysed, snap frozen, and stored at −80° C. After storage, the lysate was quantified with the Bradford assay. Before the lysates were prepared to run on the Jess, the lysates were diluted to 1 mg/mL for pERK analysis and 1.5 mg/mL pMEK analysis using quantitative Western blotting. ERK and MEK phosphorylation levels were estimated by taking the ratio of phospho-protein to total protein and normalizing to the DMSO control. The results of this study are described in Tables 14-16.

In data set [2] the test system is A549 pERK. The data set is described as follows: A549-pERK, 2 h (quantitative Western, Jess). Type of data set: cell-based. The following applies: Homo sapiens, A549, 2 h, phospho:total ratio normalized to DMSO control; for activity at 0.01 µM: 10 nM. Here is the method:
as §1

The nature of data set [3]: Plasma stability, beagle dog. Type of data set: in vitro ADME. The following applies: 2 μM.
The nature of data set [4]: Plasma stability, human. The following applies: 2 μM. Type of data set: in vitro ADME.
Data set [5] can be described thus: Plasma stability, CD-1 mouse. Type of data set: in vitro ADME. The following applies: 2 μM.
Data set [6] deals with CYP450 2C19 (Homo sapiens, UniProt P33261). As to the kind of experiment: CYP450 panel, 2C19. The following applies: 10 μM; substrate mephenytoin.
The target in data set [7] is T1, CYP450 2C8 (Homo sapiens, UniProt P10632).
T1 sequence (P10632 1-490): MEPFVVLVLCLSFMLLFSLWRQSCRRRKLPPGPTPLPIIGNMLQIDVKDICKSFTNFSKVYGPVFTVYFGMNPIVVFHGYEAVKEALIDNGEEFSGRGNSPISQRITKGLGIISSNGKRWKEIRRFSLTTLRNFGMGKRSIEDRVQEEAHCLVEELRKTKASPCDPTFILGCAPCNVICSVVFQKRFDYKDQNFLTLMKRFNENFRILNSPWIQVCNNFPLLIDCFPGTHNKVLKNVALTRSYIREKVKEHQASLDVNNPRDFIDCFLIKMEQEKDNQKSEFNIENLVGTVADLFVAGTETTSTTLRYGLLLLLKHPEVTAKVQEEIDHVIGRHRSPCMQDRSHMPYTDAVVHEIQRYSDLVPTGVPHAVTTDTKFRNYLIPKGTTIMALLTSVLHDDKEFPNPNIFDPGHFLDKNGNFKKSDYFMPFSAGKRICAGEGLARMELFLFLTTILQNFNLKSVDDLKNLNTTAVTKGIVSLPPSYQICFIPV
As to the kind of experiment: CYP450 panel, 2C8. The following applies: 10 μM; substrate amodiaquine.

The nature of data set [8]: Absorption & efflux: Caco-2 permeability. The following applies: human.
Data set [9] has as its target CYP450 2C9 (Homo sapiens, UniProt P11712). The data set is described as follows: CYP450 panel, 2C9. The following applies: 10 μM; substrate Diclofenac.

Sequence of CYP450 2C9 (P11712 whole entry): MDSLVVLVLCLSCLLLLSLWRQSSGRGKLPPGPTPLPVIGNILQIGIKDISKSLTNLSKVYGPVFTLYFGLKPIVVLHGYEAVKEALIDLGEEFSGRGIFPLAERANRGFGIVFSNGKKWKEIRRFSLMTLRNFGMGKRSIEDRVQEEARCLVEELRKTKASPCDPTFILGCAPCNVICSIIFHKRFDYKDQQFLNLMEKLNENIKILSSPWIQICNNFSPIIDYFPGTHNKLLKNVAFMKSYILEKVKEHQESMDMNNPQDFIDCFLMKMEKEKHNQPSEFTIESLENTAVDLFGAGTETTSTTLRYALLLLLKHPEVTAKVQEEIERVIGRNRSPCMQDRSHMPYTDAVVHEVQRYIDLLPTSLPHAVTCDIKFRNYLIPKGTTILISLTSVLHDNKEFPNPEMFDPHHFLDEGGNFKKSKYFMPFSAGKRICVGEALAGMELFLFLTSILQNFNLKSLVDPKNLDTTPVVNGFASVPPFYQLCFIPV
Sequence of CYP450 2C19 (P33261 whole entry): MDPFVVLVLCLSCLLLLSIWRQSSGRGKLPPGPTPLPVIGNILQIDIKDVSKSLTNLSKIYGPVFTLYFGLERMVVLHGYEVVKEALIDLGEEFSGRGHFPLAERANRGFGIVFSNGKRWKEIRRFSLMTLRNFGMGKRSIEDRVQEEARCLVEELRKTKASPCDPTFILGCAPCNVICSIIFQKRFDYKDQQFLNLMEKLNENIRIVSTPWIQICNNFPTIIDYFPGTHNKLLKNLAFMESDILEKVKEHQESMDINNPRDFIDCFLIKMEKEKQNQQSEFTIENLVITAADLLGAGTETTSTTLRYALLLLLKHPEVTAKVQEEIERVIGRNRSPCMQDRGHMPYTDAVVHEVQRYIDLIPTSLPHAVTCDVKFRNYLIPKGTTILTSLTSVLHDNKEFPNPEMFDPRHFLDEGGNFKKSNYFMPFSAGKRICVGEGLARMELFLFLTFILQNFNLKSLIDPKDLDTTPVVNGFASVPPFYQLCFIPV

On to `CNS(=O)(=O)Nc1cccc(Cc2c(CN(C)Cc3ccccc3)c3ccc(OC(=O)N(C)C)cc3oc2=O)c1F` [Compound 80], for which the activity at 0.1 µM in data set [1] was found to be 56.1%. In addition, the activity at 0.01 µM in data set [2] turned out to be 56.4%.
Turning to `CCCN(C)Cc1c(Cc2cccc(NS(=O)(=O)NC)c2F)c(=O)oc2cc(OC(=O)N(C)C)ccc12` [Compound 81], the activity at 0.1 µM in data set [1] was determined as 78.3%. In addition, the activity at 0.01 µM in [2] is 57.6%.
On to `CNS(=O)(=O)Nc1cccc(Cc2c(CN(C)C3CC3)c3ccc(OC(=O)N(C)C)cc3oc2=O)c1F` [Compound 82], for which, in [1], the activity at 0.1 µM worked out at 72.3%. The activity at 0.01 µM in [2] was 64.9%.
As for `CNS(=O)(=O)Nc1cccc(Cc2c(CN(C)CC3CC3)c3ccc(OC(=O)N(C)C)cc3oc2=O)c1F` [Compound 84], the activity at 0.1 µM in [1] is 87.3%. In data set [2], the activity at 0.01 µM stood at 83.2%.
On to `CNS(=O)(=O)Nc1cccc(Cc2c(CN(C)C3CCC3)c3ccc(OC(=O)N(C)C)cc3oc2=O)c1F` [Compound 86], for which the activity at 0.1 µM in data set [1] turned out to be 53.2%. Moreover, in data set [2], the activity at 0.01 µM came to 96.4%.
Turning to `CNS(=O)(=O)Nc1cccc(Cc2c(CN(C)CC#N)c3ccc(OC(=O)N(C)C)cc3oc2=O)c1F` [Compound 87], the activity at 0.1 µM in data set [1] is 95.8%. In [2], the activity at 0.01 µM is 63.8%.
The like results for `CNS(=O)(=O)Nc1cccc(Cc2c(CN(C)CC3CCC3)c3ccc(OC(=O)N(C)C)cc3oc2=O)c1F` [Compound 88] were, in that order, 53.6% and 142%.
`CNS(=O)(=O)Nc1cccc(Cc2c(CNc3ccsc3)c3ccc(OC(=O)N(C)C)cc3oc2=O)c1F` [Compound 90]: the activity at 0.1 µM in data set [1] is 71%. Moreover, the activity at 0.01 µM in data set [2] came out at 72.4%.
The like results for `CNS(=O)(=O)Nc1cccc(Cc2c(CNc3cncs3)c3ccc(OC(=O)N(C)C)cc3oc2=O)c1F` [Compound 91] were, in that order, 84.2% and 74.6%.
The like results for `CNS(=O)(=O)Nc1cccc(Cc2c(CN(C)c3ccc(Cl)cc3)c3ccc(OC(=O)N(C)C)cc3oc2=O)c1F` [Compound 97] were, in that order, 52.1% and 56.5%.
Taken in the same sequence, the figures for `CCS(=O)(=O)Nc1cccc(Cc2c(C)c3ccc(OC(=O)N(C)C)cc3oc2=O)c1F` [Compound 107] were 39.9% and 18%.
For `CNS(=O)(=O)Nc1cccc(Cc2c(C)c3cc(C)c(OC(=O)N(C)C)cc3oc2=O)c1F` [Compound 108], in [1], the activity at 0.1 µM stood at 47.9%. Moreover, the activity at 0.01 µM in data set [2] came to 5.78%.
As to `CNS(=O)(=O)Nc1cccc(Cc2c(C)c3cc(Cl)c(OC(=O)N(C)C)cc3oc2=O)c1F` [Compound 109], the activity at 0.1 µM in [1] turned out to be 41.9%. Besides, the activity at 0.01 µM in [2] was determined as 4.51%.
For the molecule `CNS(=O)(=O)Nc1nccc(Cc2c(C)c3cc(C)c(OC(=O)N(C)C)cc3oc2=O)c1F` [Compound 110], in data set [1], the activity at 0.1 µM came out at 56.6%. For the same molecule, the activity at 0.01 µM in [2] came out at 5.92%.
As to `CNS(=O)(=O)Nc1nccc(Cc2c(C)c3cc(Cl)c(OC(=O)N(C)C)cc3oc2=O)c1F` [Compound 111], the activity at 0.1 µM in data set [1] was 48.6%. For the same molecule, the activity at 0.01 µM in data set [2] turned out to be 4.63%.
`Cc1c(Cc2ccnc(NS(=O)(=O)C3CC3)c2F)c(=O)oc2cc(OC(=O)N(C)C)ccc12` [Compound 112]: the activity at 0.1 µM in data set [1] was determined as 52.9%. Besides, the activity at 0.01 µM in data set [2] amounted to 46.3%.
The like results for `Cc1c(Cc2cccc(NS(=O)(=O)C3CC3)c2F)c(=O)oc2cc(OC(=O)N(C)C)ccc12` [Compound 113] were, in that order, 48% and 24.7%.
Take `Cc1c(Cc2ccnc(NS(=O)(=O)C(C)C)c2F)c(=O)oc2cc(OC(=O)N(C)C)ccc12` [Compound 114]: the activity at 0.1 µM in data set [1] was 59.9%. In addition, the activity at 0.01 µM in data set [2] is 36.6%.
Consider `Cc1c(Cc2cccc(NS(=O)(=O)C(C)C)c2F)c(=O)oc2cc(OC(=O)N(C)C)ccc12` [Compound 115], for which the activity at 0.1 µM in [1] worked out at 39.2%. Also, the activity at 0.01 µM in data set [2] amounted to 13.5%.
Taken in the same sequence, the figures for `Cc1c(Cc2cccc(NS(=O)(=O)C3CCC3)c2F)c(=O)oc2cc(OC(=O)N(C)C)ccc12` [Compound 118] were 39.1% and 21.1%.
Take `CCS(=O)(=O)Nc1nccc(Cc2c(C)c3ccc(OC(=O)N(C)C)cc3oc2=O)c1F` [Compound 119]: in data set [1], the activity at 0.1 µM stood at 66.1%. The activity at 0.01 µM in [2] stood at 64.8%.
The like results for `Cc1c(Cc2ccnc(NS(=O)(=O)C3CCC3)c2F)c(=O)oc2cc(OC(=O)N(C)C)ccc12` [Compound 125] were, in that order, 41.7% and 54.4%.
On to `CNS(=O)(=O)Nc1cccc(Cc2c(CN(C)C)c3ccc(OC(=O)N4CCC4)cc3oc2=O)c1F` [Compound 128], for which the activity at 0.1 µM in data set [1] came to 37.7%. Further, the activity at 0.01 µM in [2] came out at 66.3%.
With `CCS(=O)(=O)Nc1cccc(Cc2c(CN(C)C)c3cc(Cl)c(OC(=O)N(C)C)cc3oc2=O)c1F` [Compound 132], the activity at 0.1 µM in data set [1] was 57.8%. The activity at 0.01 µM in data set [2] was determined as 62.6%.
`CNS(=O)(=O)Nc1nccc(Cc2c(CN(C)C)c3cc(F)c(OC(=O)N(C)C)cc3oc2=O)c1F` [Compound 140]: the activity at 0.1 µM in data set [1] was 70.3%. The activity at 0.01 µM in data set [2] is 65%.
Turning to `CCS(=O)(=O)Nc1cccc(Cc2c(CN3CCNCC3)c3cc(Cl)c(OC(=O)N(C)C)cc3oc2=O)c1F` [Compound 147], the activity at 0.1 µM in [1] amounted to 46.4%. The activity at 0.01 µM in [2] is 21.7%.
The like results for `CCS(=O)(=O)Nc1nccc(Cc2c(CN(C)C)c3ccc(OC(=O)N(C)C)cc3oc2=O)c1F` [Compound 148] were, in that order, 56.5% and 49.6%.
For `CN(C)C(=O)Oc1ccc2c(CN3CCNCC3)c(Cc3ccnc(NS(=O)(=O)C4CC4)c3F)c(=O)oc2c1` [Compound 150], the activity at 0.1 µM in data set [1] was determined as 90.2%. The activity at 0.01 µM in data set [2] was 47.4%.
Take `CNS(=O)(=O)Nc1cccc(Cc2c(CN3CC4(CCC4)C3)c3ccc(OC(=O)N(C)C)cc3oc2=O)c1F` [Compound 153]: the activity at 0.1 µM in data set [1] is 54.1%. In data set [2], the activity at 0.01 µM is 50.2%.
As for `C#CCNCCc1c(Cc2cccc(NS(=O)(=O)NC)c2F)c(=O)oc2cc(OC(=O)N(C)C)ccc12` [Compound 183], in data set [1], the activity at 0.1 µM is 65.9%. Also, in data set [2], the activity at 0.01 µM came out at 32.4%. Besides, the activity at 10 µM in [2] (10 uM) was determined as 0.82%.
On to `CC[C@H](C)C(=O)O[C@H]1C[C@@H](C)C=C2C=C[C@H](C)[C@H](CC[C@@H]3C[C@@H](O)CC(=O)O3)[C@H]21` [Lovastatin], for which the “Beagle Dog (% Reamining @2 hour)” value in [3] came to 94.1%. In data set [4], the “Human (% Reamining @2 hour)” value is given as 81.8%. Further, the “CD-1 Mouse (% Reamining @2 hour)” value in [5] is recorded as 0.6%.
Turning to `COc1ccc2[nH]c([S+]([O-])Cc3ncc(C)c(OC)c3C)nc2c1` (centres unmarked) [Omeprazole], the “2C19*” value in data set [6] is 61.6.
As to `CC(C)[N+](C)(CCOC(=O)C1c2ccccc2Oc2ccccc21)C(C)C` [Propantheline], in [3], the “Beagle Dog (% Reamining @2 hour)” value was 58.4%. In addition, the “Human (% Reamining @2 hour)” value in data set [4] is listed as 5.7%. For the same molecule, the “CD-1 Mouse (% Reamining @2 hour)” value in data set [5] is 27.1%.
As to `O=c1c(O)c(-c2ccc(O)c(O)c2)oc2cc(O)cc(O)c12` [Quercetin], the “2C8*” value in [7] is recorded as 93.1.
As to `CNC(=C[N+](=O)[O-])NCCSCc1ccc(CN(C)C)o1` [Ranitidine], the apparent permeability from apical to basolateral (Papp A→B) at 2 h, 10 μM in [8] is < 1 ×10⁻⁶ cm/s.
As for `Nc1ccc(S(=O)(=O)Nc2ccnn2-c2ccccc2)cc1` [Sulfaphenazole], in data set [9], the “2C9*” value worked out at 101.2.
